Tests used:
[1] = target: Histone deacetylase (Homo sapiens) (UniProt Q13547+O15379+Q9UBN7+Q92769+Q9UQL6+Q8WUI4+Q9BY41+Q96DB2+P56524+Q9UKV0+Q969S8); conditions: at 100 µM
Description: In vitro inhibitory activity against histone deacetylase (HDAC) isolated from HeLa nuclear extract at a concentration of 100 uM

Histone deacetylase = assay: In vitro inhibitory activity against histone deacetylase (HDAC) isolated from HeLa nuclear extract; assay type: protein assay, Homo sapiens

inhibition [1] | IC50 (Histone deacetylase) | SMILES
15% | > 100 µM | O=C(CCCCCCC(=O)c1ccccn1)Nc1ccccc1
9% | > 100 µM | O=C(CCCCCCC(=O)Nc1nccs1)Nc1ccccc1
16% | > 100 µM | C#CCNCCCCCCC(=O)Nc1ccccc1
8% | > 100 µM | O=C(CCCCCCC(=O)Nc1ccccn1)Nc1ccccc1
3% | > 100 µM | NCCNC(=O)CCCCCCC(=O)Nc1ccccc1
79% | 14 µM | O=C(CBr)NCCCCCCC(=O)Nc1ccccc1
8% | > 100 µM | C#CCN(CC#C)CCCCCCC(=O)Nc1ccccc1
19% | > 100 µM | CCOC(=O)NCCCCCCC(=O)Nc1ccccc1
5% | > 100 µM | O=C(CCCCCCC(=O)OCCO)Nc1ccccc1
4% | > 100 µM | O=C(CCCCCCC(=O)Nc1ccccc1)NCCO
0% | > 100 µM | O=C(CCCCCC/C(=N/O)c1ccccn1)Nc1ccccc1
18% | 650 µM | NNC(=O)NCCCCCCC(=O)Nc1ccccc1
12% | > 100 µM | COC(=O)NCCCCCCC(=O)Nc1ccccc1
40% | 300 µM | O=C(CBr)NCCCCCCCC(=O)Nc1ccccc1
7% | > 100 µM | NC(=O)NCCCCCCC(=O)Nc1ccccc1
4% | > 100 µM | O=C(CCCCCCNC(=O)C(Cl)(Cl)Cl)Nc1ccccc1
78% | 17 µM | O=C(CBr)NCCCCCC(=O)Nc1ccccc1
47% | 121 µM | O=C(CBr)NCCCCC(=O)Nc1ccccc1
3% | > 100 µM | O=C(CCCCCCNC(=O)C(F)(F)F)Nc1ccccc1
12% | > 1000 µM | NNC(=O)NCCCCC(=O)Nc1ccccc1
35% | 150 µM | NNC(=O)NCCCCCC(=O)Nc1ccccc1

SMILES | inhibition [1] | IC50 (Histone deacetylase)
Nc1ccccc1NC(=O)CCCCCCC(=O)Nc1ccccc1 | 48% | 120 µM

Reference: ChEMBL document CHEMBL1144863, “Novel histone deacetylase inhibitors: design, synthesis, enzyme inhibition, and binding mode study of SAHA-based non-hydroxamates” (Bioorg Med Chem Lett, 2003)
